Measured values reported in patent US6872690B2, “Herbicidal 2-alkynyl-pyri (mi) dines” (WYETH, priority 2001, dated 2005).

Assays:
Type in all cases: in vivo
Glycine max [1] = experiment: Pre-emergence test; conditions: 3 weeks after treatment
Method: (§1) To evaluate their herbicidal activity, compounds according to the invention are tested using a representative range of plants:
(§2) The pre-emergence tests involve spraying a liquid formulation of the compound onto the soil in which the seeds of the plant species mentioned above has recently been sown.
(§3) The soil used in the tests is a prepared horticultural loam. The formulations used in the tests are prepared from solutions of the test compounds in acetone containing 0.4% by weight of an alkyl-phenol/ethylene oxide condensate available under the trade mark TRITON X-155. These acetone solutions are diluted with water and the resulting formulations applied at dosage levels corresponding to 0.013 kg, 0.025 kg, 0.100 kg or 0.400 kg of active material per hectare in a volume equivalent to 900 litres per hectare. In these tests untreated sown soil are used as controls. From 2 to 4 weeks after treatment, the tests are terminated and each pot is examined and rated according to the rating system set forth below: […]

Ipomoea hederacea [2] = experiment: Pre-emergence test; conditions: 3 weeks after treatment
Method: as §1, §2, §3

Echinochloa crus-galli [3] = experiment: Pre-emergence test; conditions: 3 weeks after treatment
Method: as §1, §2, §3

Abutilon theophrasti [4] = experiment: Pre-emergence test; conditions: 3 weeks after treatment
Method: as §1, §2, §3

Orysa sativa [5] = experiment: Pre-emergence test; conditions: 3 weeks after treatment
Method: as §1, §2, §3

Lamium purpureum = experiment: Pre-emergence test; conditions: 3 weeks after treatment
Method: as §1, §2, §3

Alopecurus myosuroides [6] = experiment: Pre-emergence test; conditions: 3 weeks after treatment
Method: as §1, §2, §3

Matricaria inodora [7] = experiment: Pre-emergence test; conditions: 3 weeks after treatment
Method: as §1, §2, §3

Stellaria media [8] = experiment: Pre-emergence test; conditions: 3 weeks after treatment
Method: as §1, §2, §3

Digitaria sanguinalis [9] = experiment: Pre-emergence test; conditions: 3 weeks after treatment
Method: as §1, §2, §3

Setaria viridis [10] = experiment: Pre-emergence test; conditions: 3 weeks after treatment
Method: as §1, §2, §3

Galium aparine [11] = experiment: Pre-emergence test; conditions: 3 weeks after treatment
Method: as §1, §2, §3

Zea mays [12] = experiment: Pre-emergence test; conditions: 3 weeks after treatment
Method: as §1, §2, §3

Triticum aestivum [13] = experiment: Pre-emergence test; conditions: 3 weeks after treatment
Method: as §1, §2, §3

Cassia obtusifolia [14] = experiment: Pre-emergence test; conditions: 3 weeks after treatment
Method: as §1, §2, §3

Glycine max [15] = experiment: Post-emergence herbicidal activity test; conditions: 2-4 weeks after treatment
Method: as §1
(§4) These acetone solutions are diluted with water and the resulting formulations applied at dosage levels equivalent of about 0.025 to 0. 4 kg per hectare of test compound per pot. After spraying the plants are placed on greenhouse benches and are cared for in the usual manner, commensurate with conventional greenhouse practices. From 2 to 4 weeks after treatment, the seedling plants are examined and rated according to the rating system provided above.

Ipomoea hederacea [16] = experiment: Post-emergence herbicidal activity test; conditions: 2-4 weeks after treatment
Method: as §1, §4

Echinochloa crus-galli [17] = experiment: Post-emergence herbicidal activity test; conditions: 2-4 weeks after treatment
Method: as §1, §4

Abutilon theophrasti [18] = experiment: Post-emergence herbicidal activity test; conditions: 2-4 weeks after treatment
Method: as §1, §4

Orysa sativa [19] = experiment: Post-emergence herbicidal activity test; conditions: 2-4 weeks after treatment
Method: as §1, §4

Alopecurus myosuroides [20] = experiment: Post-emergence herbicidal activity test; conditions: 2-4 weeks after treatment
Method: as §1, §4

Matricaria inodora [21] = experiment: Post-emergence herbicidal activity test; conditions: 2-4 weeks after treatment
Method: as §1, §4

Stellaria media [22] = experiment: Post-emergence herbicidal activity test; conditions: 2-4 weeks after treatment
Method: as §1, §4

Digitaria sanguinalis [23] = experiment: Post-emergence herbicidal activity test; conditions: 2-4 weeks after treatment
Method: as §1, §4

Setaria viridis [24] = experiment: Post-emergence herbicidal activity test; conditions: 2-4 weeks after treatment
Method: as §1, §4

Galium aparine [25] = experiment: Post-emergence herbicidal activity test; conditions: 2-4 weeks after treatment
Method: as §1, §4

Zea mays [26] = experiment: Post-emergence herbicidal activity test; conditions: 2-4 weeks after treatment
Method: as §1, §4

Triticum aestivum [27] = experiment: Post-emergence herbicidal activity test; conditions: 2-4 weeks after treatment
Method: as §1, §4

Cassia obtusifolia [28] = experiment: Post-emergence herbicidal activity test; conditions: 2-4 weeks after treatment
Method: as §1, §4

COc1cc(C#Cc2ccccc2)nc(Oc2cc(C(F)(F)F)nn2C)c1 [Example 27]
Assessment (pre-emergence application) GLXMA (Glycine max [1]; 0.025 kg/ha): 2 (2-Slight effect)
Assessment (pre-emergence application) GLXMA (Glycine max [1]; 0.100 kg/ha): 2 (2-Slight effect)
Assessment (pre-emergence application) GLXMA (Glycine max [1]; 0.400 kg/ha): 3 (3-Moderate effect)
Assessment (pre-emergence application) IPOHE (Ipomoea hederacea [2]; 0.025 kg/ha): 3 (3-Moderate effect)
Assessment (pre-emergence application) IPOHE (Ipomoea hederacea [2]; 0.100 kg/ha): 4 (4-Injury)
Assessment (pre-emergence application) IPOHE (Ipomoea hederacea [2]; 0.400 kg/ha): 6 (6-Herbicidal effect)
Assessment (pre-emergence application) ECHCG (Echinochloa crus-galli [3]; 0.025 kg/ha): 3 (3-Moderate effect)
Assessment (pre-emergence application) ECHCG (Echinochloa crus-galli [3]; 0.100 kg/ha): 4 (4-Injury)
Assessment (pre-emergence application) ECHCG (Echinochloa crus-galli [3]; 0.400 kg/ha): 7 (7-Good herbicidal effect)
Assessment (pre-emergence application) ABUTH (Abutilon theophrasti [4]; 0.025 kg/ha): 5 (5-Definite injury)
Assessment (pre-emergence application) ABUTH (Abutilon theophrasti [4]; 0.100 kg/ha): 5 (5-Definite injury)
Assessment (pre-emergence application) ABUTH (Abutilon theophrasti [4]; 0.400 kg/ha): 8 (8-Approaching complete kill)
Assessment (pre-emergence application) ORYSA (Orysa sativa [5]; 0.025 kg/ha): 0 (0-No effect)
Assessment (pre-emergence application) ORYSA (Orysa sativa [5]; 0.100 kg/ha): 1 (1-Trace effect)
Assessment (pre-emergence application) ORYSA (Orysa sativa [5]; 0.400 kg/ha): 1 (1-Trace effect)
Assessment (pre-emergence application) LAMPU (Lamium purpureum; 0.025 kg/ha): 8 (8-Approaching complete kill)
Assessment (pre-emergence application) LAMPU (Lamium purpureum; 0.100 kg/ha): 8 (8-Approaching complete kill)
Assessment (pre-emergence application) LAMPU (Lamium purpureum; 0.400 kg/ha): 9 (9-Complete kill)
Assessment (pre-emergence application) ALOMY (Alopecurus myosuroides [6]; 0.025 kg/ha): 2 (2-Slight effect)
Assessment (pre-emergence application) ALOMY (Alopecurus myosuroides [6]; 0.100 kg/ha): 3 (3-Moderate effect)
Assessment (pre-emergence application) ALOMY (Alopecurus myosuroides [6]; 0.400 kg/ha): 6 (6-Herbicidal effect)
Assessment (pre-emergence application) MATIN (Matricaria inodora [7]; 0.025 kg/ha): 8 (8-Approaching complete kill)
Assessment (pre-emergence application) MATIN (Matricaria inodora [7]; 0.100 kg/ha): 8 (8-Approaching complete kill)
Assessment (pre-emergence application) MATIN (Matricaria inodora [7]; 0.400 kg/ha): 8 (8-Approaching complete kill)
Assessment (pre-emergence application) STEME (Stellaria media [8]; 0.025 kg/ha): 9 (9-Complete kill)
Assessment (pre-emergence application) STEME (Stellaria media [8]; 0.100 kg/ha): 9 (9-Complete kill)
Assessment (pre-emergence application) STEME (Stellaria media [8]; 0.400 kg/ha): 9 (9-Complete kill)
Assessment (pre-emergence application) DIGSA (Digitaria sanguinalis [9]; 0.025 kg/ha): 6 (6-Herbicidal effect)
Assessment (pre-emergence application) DIGSA (Digitaria sanguinalis [9]; 0.100 kg/ha): 6 (6-Herbicidal effect)
Assessment (pre-emergence application) DIGSA (Digitaria sanguinalis [9]; 0.400 kg/ha): 8 (8-Approaching complete kill)
Assessment (pre-emergence application) SETVI (Setaria viridis [10]; 0.025 kg/ha): 5 (5-Definite injury)
Assessment (pre-emergence application) SETVI (Setaria viridis [10]; 0.100 kg/ha): 8 (8-Approaching complete kill)
Assessment (pre-emergence application) SETVI (Setaria viridis [10]; 0.400 kg/ha): 9 (9-Complete kill)
Assessment (pre-emergence application) GALAP (Galium aparine [11]; 0.025 kg/ha): 1 (1-Trace effect)
Assessment (pre-emergence application) GALAP (Galium aparine [11]; 0.100 kg/ha): 2 (2-Slight effect)
Assessment (pre-emergence application) GALAP (Galium aparine [11]; 0.400 kg/ha): 6 (6-Herbicidal effect)
Assessment (pre-emergence application) ZEAMX (Zea mays [12]; 0.025 kg/ha): 1 (1-Trace effect)
Assessment (pre-emergence application) ZEAMX (Zea mays [12]; 0.100 kg/ha): 2 (2-Slight effect)
Assessment (pre-emergence application) ZEAMX (Zea mays [12]; 0.400 kg/ha): 3 (3-Moderate effect)
Assessment (pre-emergence application) TRZWA (Triticum aestivum [13]; 0.025 kg/ha): 1 (1-Trace effect)
Assessment (pre-emergence application) TRZWA (Triticum aestivum [13]; 0.100 kg/ha): 2 (2-Slight effect)
Assessment (pre-emergence application) TRZWA (Triticum aestivum [13]; 0.400 kg/ha): 3 (3-Moderate effect)
Assessment (pre-emergence application) CASOB (Cassia obtusifolia [14]; 0.025 kg/ha): 7 (7-Good herbicidal effect)
Assessment (pre-emergence application) CASOB (Cassia obtusifolia [14]; 0.400 kg/ha): 8 (8-Approaching complete kill)
Post-emergence application GLXMA (Glycine max [15]; 0.100 kg/ha): 4 (4-Injury)
Post-emergence application GLXMA (Glycine max [15]; 0.400 kg/ha): 6 (6-Herbicidal effect)
Post-emergence application IPOHE (Ipomoea hederacea [16]; 0.100 kg/ha): 6 (6-Herbicidal effect)
Post-emergence application IPOHE (Ipomoea hederacea [16]; 0.400 kg/ha): 6 (6-Herbicidal effect)
Post-emergence application ECHCG (Echinochloa crus-galli [17]; 0.100 kg/ha): 5 (5-Definite injury)
Post-emergence application ECHCG (Echinochloa crus-galli [17]; 0.400 kg/ha): 7 (7-Good herbicidal effect)
Post-emergence application ABUTH (Abutilon theophrasti [18]; 0.100 kg/ha): 5 (5-Definite injury)
Post-emergence application ABUTH (Abutilon theophrasti [18]; 0.400 kg/ha): 6 (6-Herbicidal effect)
Post-emergence application ORYSA (Orysa sativa [19]; 0.100 kg/ha): 3 (3-Moderate effect)
Post-emergence application ORYSA (Orysa sativa [19]; 0.400 kg/ha): 3 (3-Moderate effect)
Post-emergence application ALOMY (Alopecurus myosuroides [20]; 0.100 kg/ha): 6 (6-Herbicidal effect)
Post-emergence application ALOMY (Alopecurus myosuroides [20]; 0.400 kg/ha): 8 (8-Approaching complete kill)
Post-emergence application MATIN (Matricaria inodora [21]; 0.100 kg/ha): 5 (5-Definite injury)
Post-emergence application MATIN (Matricaria inodora [21]; 0.400 kg/ha): 7 (7-Good herbicidal effect)
Post-emergence application STEME (Stellaria media [22]; 0.100 kg/ha): 6 (6-Herbicidal effect)
Post-emergence application STEME (Stellaria media [22]; 0.400 kg/ha): 8 (8-Approaching complete kill)
Post-emergence application DIGSA (Digitaria sanguinalis [23]; 0.100 kg/ha): 4 (4-Injury)
Post-emergence application DIGSA (Digitaria sanguinalis [23]; 0.400 kg/ha): 6 (6-Herbicidal effect)
Post-emergence application SETVI (Setaria viridis [24]; 0.100 kg/ha): 7 (7-Good herbicidal effect)
Post-emergence application SETVI (Setaria viridis [24]; 0.400 kg/ha): 8 (8-Approaching complete kill)
Post-emergence application GALAP (Galium aparine [25]; 0.100 kg/ha): 6 (6-Herbicidal effect)
Post-emergence application GALAP (Galium aparine [25]; 0.400 kg/ha): 7 (7-Good herbicidal effect)
Post-emergence application ZEAMX (Zea mays [26]; 0.100 kg/ha): 3 (3-Moderate effect)
Post-emergence application ZEAMX (Zea mays [26]; 0.400 kg/ha): 3 (3-Moderate effect)
Post-emergence application TRZWA (Triticum aestivum [27]; 0.100 kg/ha): 2 (2-Slight effect)
Post-emergence application TRZWA (Triticum aestivum [27]; 0.400 kg/ha): 3 (3-Moderate effect)
Post-emergence application CASOB (Cassia obtusifolia [28]; 0.100 kg/ha): 7 (7-Good herbicidal effect)
Post-emergence application CASOB (Cassia obtusifolia [28]; 0.400 kg/ha): 7 (7-Good herbicidal effect)
